Source: patent US9138470B2, “Multi-component L2 vaccine for prevention of human papilloma virus infection” (The Johns Hopkins University, priority 2007, dated 2015)
Entries after “also recorded” stand apart in the source; their conditions may differ.

How the values were obtained:
Assay type in all cases: in vivo
[1] = tested on: HPV45 pseudovirions; test: Cutaneous HPV challenge with HPV45 pseudovirions (luciferase reporter); settings: BALB/c mice vaccinated s.c. three times, luminescence 72 hrs post-challenge
Description: (§1) Immunization of mice. All animal experimental work was done in accordance with Johns Hopkins Medical Institutions Animal Care and Use Committee guidelines. BALB/c and C57BL/6 (NCI, Frederick, Md.) wild type or MyD88 (D. Golenbock, UMass Medical Center, […], Mass.), CD40, or MHCII deficient mice (Jackson Laboratories, Bar Harbor, Me.) were used. Mice aged 4-6 wks were immunized with P25-P2C-HPV vaccine or various controls. All vaccine and control peptides were dissolved in phosphate-buffered saline (PBS). Mice received two booster immunizations at 4 wks and 8 wks after priming immunization in the same fashion and dose. (i) subcutaneous (s.c.): Each mouse was administered 20 nmols of vaccine in a total volume of 100 μL or an equivalent amount of several control preparations at the base of the tail. (ii) intranasal (i.n.): Anesthesia induction was accomplished within 3 to 5 mins using a chamber filled with 2.5% isoflurane (Baxter, Deerfield, Ill.). While anesthetized, each mouse was administered 20 nmols of lipopeptide in a total volume of 50 μL of vaccine or an equivalent amount of several control preparations via controlled micropipetting into the nares.
(§2) Cutaneous HPV challenge. […] Equal areas encompassing the site of virus inoculation were analyzed using Living Image 2.20 software (Xenogen), and background was determined by challenge with non-infectious HPV pseudovirions lacking L2.

[2] = tested on: HPV16 pseudovirions; test: Cutaneous HPV challenge with HPV16 pseudovirions (luciferase reporter); settings: BALB/c mice vaccinated s.c. three times, bioluminescence 3 days post-challenge
Description: as §1, §2

[3] = tested on: HPV16 L2 17-36; test: HPV16 L2 17-36 peptide ELISA of sera from immunized mice; settings: mice vaccinated s.c. or i.n.; compared with saline controls
Description: as §1
Collection and quantification of HPV specific antibody responses. […] Presence of serum antibodies against HPV16 was assessed by enzyme-linked immunosorbent assays (ELISA). […]

## HPV16 L1 VLP: virus-like particles of HPV16 major capsid protein L1, control vaccine
[1]
  protection from cutaneous challenge with HPV45 pseudovirions: did not protect
[2]
  protection from cutaneous challenge with HPV16 pseudovirions: protected mice from cutaneous challenge

## QLYKTCKQAGTCPPDIIPKV (listed as Human papillomavirus) [HPV16 L2 17-36 peptide]
[1]
  protection from cutaneous challenge with HPV45 pseudovirions: did not protect
[2]
  protection from cutaneous challenge with HPV16 pseudovirions: failed to protect the mice
[3]
  L2-specific antibody (immune) response by ELISA: immune responses similar to saline controls; also recorded: failed to induce an L2-specific antibody response
